Results on one compound are retold here after US10278956B1, “Use of intravenous melatonin in patients with ST-elevation myocardial infarction” (priority 2018, dated 2019).

Entries after “also recorded” stand apart in the source; their conditions may differ.

Experiment [1] deals with closed-chest porcine model. Particulars: combined intracoronary and intravenous treatment; cited from earlier work.
Experiment [2] relates to patients with ST-segment elevation myocardial infarction (STEMI). Particulars: earlier published trial; cited from earlier work.
Experiment [3] has as its system STEMI-patients. Put plainly: Pilot randomized, double-blinded, placebo controlled study of intravenous melatonin before pPCI; infarct size by CMR. It counts as in vivo, human. The procedure: This pilot study is a prospective, randomized, double-blinded, placebo controlled study of consecutive patients admitted with a STEMI. Additional inclusion criteria were presented within 6 hours of chest pain onset and occlusion of culprit artery with TIMI basal flow grade 0 to 1. Patients randomised to intravenous melatonin received a dose of 12 mg (51.7 μmol, in saline solution, in a volume of 50 ml in an opaque syringe) given by a time period of 60 minutes starting immediately before primary percutaneous coronary intervention (pPCI), by via a catheter positioned within a peripheral vein. The control group received a matching intravenous placebo formulation.
A total of 31 patients were enrolled. Groups were well balanced for age, gender, and cardiovascular risk factors. No significant differences were observed between groups concerning baseline clinical and angiographic characteristics. Randomized patients were divided in 2 groups: Group 1 (patients with ischemia duration 3 hours) and Group 2 (patients with ischemia duration >3 hours). Group 1 there had 17 patients (8 treated with melatonin and 9 with placebo) and in the group 2 there were 14 patients (6 treated with melatonin and 8 with placebo).
Myocardial infarct size was calculated as percentage of left ventricular mass by cardiovascular magnetic resonance (CMR).

Setting [4] is: Group 1 (≤3 hours ischemia duration), 12 mg intravenous over 60 min starting immediately before pPCI, CMR, *P < 0.01 vs Placebo.
[5] abbreviates: Group 2 (>3 hours ischemia duration), 12 mg intravenous over 60 min starting immediately before pPCI, CMR.

Turning to `COc1ccc2[nH]cc(CCNC(C)=O)c2c1` [Melatonin, melatonin], the Myocardial reperfusion injury result in experiment [1] is reported as “did not reduce myocardial reperfusion injury”. Further, in experiment [2], the “Effect on ventricular volumes and LVEF evolution” value was “unfavorable effect”; the “Myocardial infarct size (MIS) compared with placebo” value is on record as “failed to reduce myocardial infarct size”. For the same compound, in experiment [3] (setting [4]), the “Infarct size (g)” value is recorded as 16.53 ± 7.28* g and the “Infarct size (proportion of left ventricular mass) %” value was 17.71 ± 7.55* %. In experiment [3] (setting [5]), the “Infarct size” value was found to be 25.69 ± 7.34 g and the “Infarct size (proportion of left ventricular mass) %” value was determined as 20.62 ± 5.37%. In experiment [3] (intravenous, given within 3 hours or less after symptom onset (group 1)), the “Myocardial infarct size compared with placebo” value is given as “significantly reduces myocardial infarct size; also recorded: significantly smaller”. The “Effect on myocardial infarct size compared with placebo” value in experiment [3] (time from symptom onset to melatonin administration longer than 3 hours) is recorded as “significantly reduced or even opposite effect”.
